US20250326748A1, “COMPOUNDS AND METHODS FOR MODULATING SPLICING” (REMIX THERAPEUTICS INC., priority 2022, published 2025)
pIC50: −log10 of the molar value. Structures can show the parent of a compound that is named as a salt. Where two headings read alike, the source gives them in different places.

What was measured:
SMN2 mRNA = assay: Splicing RT-qPCR panel, SMN2 canonical junction (CJ) mRNA; assay type: cell-based, human; settings: read-out: SMN2 CJ (decrease in CJ mRNA levels, IC50)
In short: (§1)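 A673 cells (DMEM, 10% FBS) or K562 cells (IMDM, 10% FBS) treated 24 h at 37 °C with an 11-point 3-fold dilution, top 10 uM, DMSO ≤0.25%. Canonical-junction mRNA quantified in lysates by RT-qPCR, normalised to GAPDH, GUSB or PPIA and to DMSO (2^−ΔΔCt), then converted to % response.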

K562 cells = assay: Cell viability, Cell Titer Glo 2.0 assay, K562; settings: 72 hours
Target C mRNA = assay: Splicing RT-qPCR panel, Target C canonical junction (CJ) mRNA; assay type: cell-based, human; settings: read-out: Target C CJ (decrease in CJ mRNA levels, IC50)
In short: as §1

HiBiT-tagged HTT protein = assay: HiBiT protein abundance assay, HTT (K562 HiBiT knock-in); assay type: cell-based, human; settings: HiBiT knock-in cells, 24 hours
In short: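 Endogenously HiBiT-tagged K562 knock-in lines treated 24 h at 37 °C with 10-point 3-fold dilutions (top 10 μM final, DMSO ≤0.25%) in IMDM+1% FBS. Lytic Nano-Glo luminescence normalized to DMSO and unmodified K562 controls; four-parameter fit gives 50%-abundance concentration (IC50).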

| SMILES | pIC50 (SMN2 mRNA; Homo sapiens) | pIC50 (Target C mRNA; Homo sapiens) | pIC50 (HiBiT-tagged HTT protein) | pIC50 (SMN2 mRNA) | pIC50 (Target C mRNA) | Effect on Cell Viability, K562 (K562 cells) |
| --- | --- | --- | --- | --- | --- | --- |
| Cn1cc2cc(-c3cc(Cl)c4cc(N5CCNCC5)cnc4n3)c(O)cc2n1 [Compound 102, 5-[4-chloro-6-(piperazin-1-yl)-1,8-naphthyridin-2-yl]-2-methylindazol-6-ol] | > 7.00 | 5.00 to 6.00 | 6.00 to 7.00 |  |  | B (100-1000 nM) |
| C[C@@H]1CN(c2cnc3nc(-c4cc5cn(C)nc5c(F)c4O)ccc3c2)C[C@H](C)N1 [Compound 206] | > 7.00 | 6.00 to 7.00 | > 7.00 |  |  | A (<100 nM) |
| Cc1c(O)c(-c2cc(Cl)c3cc(N4C[C@@H](C)N[C@@H](C)C4)cnc3n2)cc2cn(C)nc12 [Compound 207, 5-{4-chloro-6-[(3R,5S)-3,5-dimethylpiperazin-1-yl]-1,8-naphthyridin-2-yl}-2,7-dimethylindazol-6-ol] |  |  | > 7.00 | > 7.00 | 6.00 to 7.00 | A (<100 nM) |
| CC1CN(c2cnc3nc(-c4cc(F)c5nn(C)cc5c4)cc(Cl)c3c2)CCN1 (stereo not shown) [Compound 203, 4-chloro-2-(7-fluoro-2-methyl-2H-indazol-5-yl)-6-(3-methylpiperazin-1-yl)-1,8-naphthyridine 2,2,2-trifluoroacetate] | > 7.00 | 5.00 to 6.00 | 6.00 to 7.00 |  |  | B (100-1000 nM) |
| Cc1c(O)c(-c2ccc3nc(N4CCC(N(C)C)CC4)cnc3n2)cc2cn(C)nc12 [Compound 198] | > 7.00 | 6.00 to 7.00 | 5.00 to 6.00 |  |  | B (100-1000 nM) |
| Cn1cc2cc(-c3cnc4cc(N5CC[C@@H](NC6CC6)C5)ccc4n3)c(O)c(F)c2n1 [Compound 177, 5-[6-[(3R)-3-(cyclopropylamino)318quinoxaline-1-yl]318quinoxaline-2-yl]-7-fluoro-2-methyl-indazol-6-ol] | > 7.00 | > 7.00 | > 7.00 |  |  | A (<100 nM) |
| Cn1cc2cc(-c3cnc4nc(N5CCNCC5)cc(Cl)c4c3)cc(F)c2n1 [Compound 101, 4-chloro-6-(7-fluoro-2-methyl-2H-indazol-5-yl)-2-(piperazin-1-yl)-1,8-naphthyridine] | > 7.00 | < 5.00 | 5.00 to 6.00 |  |  | B (100-1000 nM) |
| Cn1cc2cc(-c3cc(Cl)c4cc(N5CCNC(C6CC6)C5)cnc4n3)cc(F)c2n1 (stereo not shown) [Compound 209, 4-chloro-6-(3-cyclopropylpiperazin-1-yl)-2-(7-fluoro-2-methylindazol-5-yl)-1,8-naphthyridine] | > 7.00 | 5.00 to 6.00 | 6.00 to 7.00 |  |  | B (100-1000 nM) |
| Cc1c(O)c(-c2cc(Cl)c3cc(N(C)C4CCNC4)cnc3n2)cc2cn(C)nc12 (stereo not shown) [Compound 204, 5-[4-chloro-6-(367pyrrolidine-3-ylamino)-1,8-naphthyridin-2-yl]-2,7-dimethylindazol-6-ol] | > 7.00 | < 5.00 | 6.00 to 7.00 |  |  | B (100-1000 nM) |
| Cc1cn2cc(-c3cnc4nc(C5CCNCC5)ccc4c3)cc(C)c2n1 [Compound 201] | > 7.00 | > 7.00 | < 5.00 |  |  | C (1000-9999 nM) |
| Cn1cc2cc(-c3cnc4nc(N5CCC(NC6CC6)C5)ccc4n3)c(O)c(F)c2n1 (stereo not shown) [Compound 178, 5-[6-[3-(cyclopropylamino)pyrrolidin-1-yl]pyrido[2,3-b]pyrazin-2-yl]-7-fluoro-2-methyl-indazol-6-ol] | > 7.00 | 6.00 to 7.00 | 6.00 to 7.00 |  |  | B (100-1000 nM) |
| Cc1c(O)c(-c2ncc3cc(N4CC[C@@H](N)C4)cnc3n2)cc2cn(C)nc12 [Compound 159, (R)-5-(6-(3-aminopyrrolidin-1-yl)pyrido[2,3-d]pyrimidin-2-yl)-2,7-dimethyl-2H-indazol-6-ol 2,2,2-trifluoroacetate] | > 7.00 | 6.00 to 7.00 | > 7.00 |  |  | B (100-1000 nM) |
| COc1nc(-c2cc3cn(C)nc3c(C)c2O)nc2ncc(N3CCC(N(C)C)CC3)cc12 [Compound 163, 5-{6-[4-(dimethylamino)piperidin-1-yl]-4-methoxypyrido[2,3-d]pyrimidin-2-yl}-2,7-dimethylindazol-6-ol] | > 7.00 | < 5.00 | 5.00 to 6.00 |  |  | B (100-1000 nM) |
| Cn1cc2cc(-c3cc(Cl)c4cc(N5CCNCC5)cnc4n3)cc(F)c2n1 [Compound 103] | > 7.00 | 5.00 to 6.00 | 6.00 to 7.00 |  |  | B (100-1000 nM) |
| C[C@@H]1CN(c2cnc3nc(-c4cc5cn(C)nc5cc4O)cc(Cl)c3c2)C[C@H](C)N1 [Compound 208] | > 7.00 | 5.00 to 6.00 | 6.00 to 7.00 |  |  | B (100-1000 nM) |
| Cc1cn2nc(-c3ccc4cc(NC5CCNCC5)cnc4n3)cc(C)c2n1 [Compound 210, 7-{2,8-dimethylimidazo[1,2-b]pyridazin-6-yl}-N-(piperidin-4-yl)-1,8-naphthyridin-3-amine; trifluoroacetic acid] | 6.00 to 7.00 | < 5.00 | 5.00 to 6.00 |  |  | C (1000-9999 nM) |
| Cn1cc2cc(-c3cnc4cc(N5CC[C@H](NC6CC6)C5)ccc4n3)c(O)c(F)c2n1 [Compound 176, 5-[6-[(3S)-3-(cyclopropylamino)318quinoxaline-1-yl]318quinoxaline-2-yl]-7-fluoro-2-methyl-indazol-6-ol] | > 7.00 | 6.00 to 7.00 | > 7.00 |  |  | A (<100 nM) |

Second part, led by results:

| pIC50 (SMN2 mRNA; Homo sapiens) | pIC50 (Target C mRNA; Homo sapiens) | pIC50 (HiBiT-tagged HTT protein) | pIC50 (SMN2 mRNA) | pIC50 (Target C mRNA) | SMILES | Effect on Cell Viability, K562 (K562 cells) |
| --- | --- | --- | --- | --- | --- | --- |
| > 7.00 | 5.00 to 6.00 | 6.00 to 7.00 |  |  | CNC1CCN(c2cnc3nc(-c4cc5cn(C)nc5cc4O)cc(Cl)c3c2)C1 (stereo not shown) [Compound 213, 5-{4-chloro-6-[3-(methylamino)370pyrrolidine-1-yl]-1,8-naphthyridin-2-yl}-2-methylindazol-6-ol] | B (100-1000 nM) |
| > 7.00 | 5.00 to 6.00 | 6.00 to 7.00 |  |  | C[C@@H]1CN(c2cnc3nc(-c4cc5cn(C)nc5cc4O)cc(Cl)c3c2)C[C@@H](C)N1 [Compound 243, 5-{4-chloro-6-[(3R,5R)-3,5-dimethylpiperazin-1-yl]-1,8-naphthyridin-2-yl}-2-methylindazol-6-ol hydrochloride] | B (100-1000 nM) |
| > 7.00 | 6.00 to 7.00 | > 7.00 |  |  | CN(C)[C@H]1CCN(c2cnc3nc(-c4cc5cn(C)nc5c(F)c4O)cc(Cl)c3c2)C1 [Compound 221] | A (<100 nM) |
| > 7.00 | 6.00 to 7.00 | < 5.00 |  |  | Cc1c(O)c(-c2cc(-c3nnc[nH]3)c3cc(N4C[C@@H](C)N[C@@H](C)C4)cnc3n2)cc2cn(C)nc12 [Compound 261, 5-{6-[(3R,5S)-3,5-dimethylpiperazin-1-yl]-4-(4H-1,2,4-triazol-3-yl)-1,8-naphthyridin-2-yl}-2,7-dimethylindazol-6-ol] | D (greater than 10 μM) |
| > 7.00 | 5.00 to 6.00 | 5.00 to 6.00 |  |  | C[C@@H]1CN(c2cnc3nc(-c4cc(F)c5nn(C)cc5c4)cc(Cl)c3c2)C[C@H](C)N1 [Compound 215] | B (100-1000 nM) |
| > 7.00 | 5.00 to 6.00 | 6.00 to 7.00 |  |  | C[C@H]1CN(c2cnc3nc(-c4cc5cn(C)nc5cc4O)cc(Cl)c3c2)C[C@H](C)N1 [Compound 242] | A (<100 nM) |
| > 7.00 | 5.00 to 6.00 | 6.00 to 7.00 |  |  | C[C@@H]1CN(c2cnc3nc(-c4cc5cn(C)nc5c(F)c4O)cc(C#N)c3c2)C[C@H](C)N1 [Compound 266, 6-[(3R,5S)-3,5-dimethylpiperazin-1-yl]-2-(7-fluoro-6-hydroxy-2-methylindazol-5-yl)-1,8-naphthyridine-4-carbonitrile hydrochloride] | A (<100 nM) |
| > 7.00 | > 7.00 | > 7.00 |  |  | CN[C@@H]1CCN(c2cnc3nc(-c4cc5cn(C)nc5c(F)c4O)cc(Cl)c3c2)C1 [Compound 271] | A (<100 nM) |
| < 5.00 | < 5.00 | 5.00 to 6.00 |  |  | Cc1c(O)c(-c2cc(-c3ccccn3)c3cc(N4C[C@@H](C)N[C@@H](C)C4)cnc3n2)cc2cn(C)nc12 [Compound 217, 5-{6-[(3R,5S)-3,5-dimethylpiperazin-1-yl]-4-(pyridin-2-yl)-1,8-naphthyridin-2-yl}-2,7-dimethylindazol-6-ol] | C (1000-9999 nM) |
| > 7.00 | 6.00 to 7.00 | 6.00 to 7.00 |  |  | C[C@H]1CN(c2cnc3nc(-c4cc(F)c5nn(C)cc5c4)cc(Cl)c3c2)C[C@H](C)N1 [Compound 250] | A (<100 nM) |
| > 7.00 | 6.00 to 7.00 | > 7.00 |  |  | CN[C@@H]1CCN(c2cnc3nc(-c4cc5cn(C)nc5c(C)c4O)nc(OC)c3c2)C1 [Compound 211, 5-{4-methoxy-6-[(3R)-3-(methylamino)pyrrolidin-1-yl]pyrido[2,3-d]pyrimidin-2-yl}-2,7-dimethylindazol-6-ol] | A (<100 nM) |
